Test results as given in patent publication US20030104473A1, “Common ligand mimics: benzimidazoles” (priority 2001, published 2003).

What was measured:
Settings in all cases: Example 13 oxidoreductase panel (FIG. 7)
[1] = biological target: T1, HMG CoA reductase (HMGCoAR) (UniProt P04035); experiment: HMGCoAR kinetic assay, spectrophotometric oxidation of NADPH at 340 nm; type: biochemical
T1 sequence (P04035 1-888): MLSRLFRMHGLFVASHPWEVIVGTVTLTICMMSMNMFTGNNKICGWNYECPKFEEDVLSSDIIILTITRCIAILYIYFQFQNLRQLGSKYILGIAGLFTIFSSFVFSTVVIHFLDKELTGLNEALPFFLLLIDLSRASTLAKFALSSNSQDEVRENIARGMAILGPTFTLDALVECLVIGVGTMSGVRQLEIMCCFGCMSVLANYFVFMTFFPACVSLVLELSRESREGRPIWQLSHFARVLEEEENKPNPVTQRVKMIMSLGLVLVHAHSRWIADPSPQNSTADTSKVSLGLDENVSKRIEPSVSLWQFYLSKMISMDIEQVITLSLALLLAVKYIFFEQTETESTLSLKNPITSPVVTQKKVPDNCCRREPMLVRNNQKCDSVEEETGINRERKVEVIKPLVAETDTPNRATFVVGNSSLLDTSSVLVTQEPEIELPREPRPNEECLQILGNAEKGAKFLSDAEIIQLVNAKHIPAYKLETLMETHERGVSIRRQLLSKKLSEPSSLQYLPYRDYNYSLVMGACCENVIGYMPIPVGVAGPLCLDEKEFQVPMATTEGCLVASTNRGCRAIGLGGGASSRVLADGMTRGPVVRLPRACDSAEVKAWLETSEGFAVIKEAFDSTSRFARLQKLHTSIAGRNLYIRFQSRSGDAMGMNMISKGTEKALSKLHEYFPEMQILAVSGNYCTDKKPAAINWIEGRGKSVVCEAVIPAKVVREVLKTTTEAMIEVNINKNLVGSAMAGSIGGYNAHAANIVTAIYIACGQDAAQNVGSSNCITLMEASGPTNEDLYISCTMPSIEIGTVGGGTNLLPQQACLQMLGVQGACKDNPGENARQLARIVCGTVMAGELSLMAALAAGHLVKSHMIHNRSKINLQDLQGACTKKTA
Method: For HMGCoAR analysis, the compounds were screened using a kinetic protocol that spectrophotometrically evaluates oxidation of NADPH.
Stock solutions of each of the reagents were prepared in the following concentrations. Dilutions of the stock solutions were prepared prior to running the assay in the concentrations indicated below. The enzyme was diluted in 1 M NaCl. To prepare the dilution buffer, 10 μl of HMGCoAR (1 mg/ml) was mixed with 133 μl of 3 M NaCl solution and 257 μl of 25 mM KH2PO4 buffer (pH 7.5; containing 50 mM NaCl, […] EDTA (ethylenediaminetetraacetic acid), and 5 mM DTT (dithiothreitol).
The HMGCoAR reaction was monitored at 340 nm prior to and after addition of the inhibitor to detect background reaction with the inhibitor. Solutions of 100 μM of the inhibitors in DMSO were prepared to provide a final DMSO concentration of 2% of the total assay volume. These solutions were incubated for 6 minutes at 25° C. in a 994 μl of a solution containing 25 mM KH2PO4, pH 7.5, 160 μM HMGCoA, 13 μM NADPH, 50 mM NaCl, 1 mM EDTA, and 5 mM DTT. The reaction was then initiated with 5 μl of HMGCoAR enzyme (1:40 dilution of 0.65 mg/ml). After the enzyme was added, the solution was mixed for 20 seconds, and the reaction was run for 10 minutes. After a 50 second lag, the samples were read in a Cary spectrophotometer at 340 nm. Reading of the samples was continued until 300 seconds. […]

[2] = biological target: Human Aldose Reductase (AR) (Homo sapiens, UniProt P15121); experiment: AR kinetic assay, spectrophotometric measurement of enzyme activity at 340 nm; type: biochemical
Method: For AR analysis, the compounds were screened using a kinetic protocol that spectrophotometrically measures enzyme activity.
(§1) Stock solutions of each of the reagents were prepared in the following concentrations. Dilutions of the stock solutions were prepared prior to running the assay in the concentrations indicated below.
The AR reaction was monitored at 340 nm prior to and after addition of the inhibitor to detect background reaction with the inhibitor. Solutions of 100 μl of the inhibitors in DMSO were prepared to provide a final DMSO concentration of 5% of the total assay volume. These solutions were incubated for 5 minutes at 25° C. in a 990 μl of a solution containing 100 mM potassium phosphate, pH 7.5, 0.3 M ammonium sulfate, 1.0 mM ethylenediaminetetraacetic acid (EDTA), 3.8 μM B-Nicotinamide adenine dinucleotide phosphate (NADPH), 171 μM DL-glyceraldehyde and 0.1 mM DL-dithiothreitol. The reaction was then initiated with 10 μl of Human Aldose Reductase (1:5 dilution of 0.55 mg/ml). After the enzyme was added, the solution was mixed for 20 seconds, and the reaction was run for 10 minutes. After a 50 second lag, the samples were read in a Cary spectrophotometer at 340 nm. Reading of the samples was continued until 300 seconds. The final DMSO concentration in the cuvette was 5%. […]

[3] = biological target: T2, lactate dehydrogenase (LDH) (Oryctolagus cuniculus, UniProt P13491); experiment: LDH kinetic assay, spectrophotometric oxidation of NADH at 340 nm; type: biochemical, Rabbit Muscle
T2 construct: 10 μl of LDH from Rabbit Muscle; from tissue; host or cells: rabbit muscle
Method: For LDH analysis, the compounds were screened using a kinetic protocol that spectrophotometrically evaluates oxidation of NADH.
as §1
The LDH reaction was monitored at 340 nm prior to and after addition of the inhibitor to detect background reaction with the inhibitor. Solutions of 100 μl of the inhibitors in DMSO were prepared to provide a final DMSO concentration of 5% of the total assay volume. These solutions were incubated for 6 minutes at 25° C. in a 990 μl of a solution containing 0.1 M HEPES, pH 7.4, 10 μM NADH, and 2.5 mM of pyruvate. The reaction was then initiated with 10 μl of LDH from Rabbit Muscle (0.5 μg/ml; 1:2000 dilution of 1.0 mg/ml). After the enzyme was added, the solution was mixed for 20 seconds, and the reaction was run for 10 minutes. After a 50 second lag, the samples were read in a Cary spectrophotometer at 340 nm. Reading of the samples was continued until 300 seconds. Cuvette #1 contained the control reaction (no inhibitor), and cuvette #2 contained the positive control reaction in which Cibacron Blue at 10.3 μM was substituted for inhibitor to yield 50 to 70% inhibition. The substrate was kept at a level at least 10 times the Km.

| SMILES | IC50 [1] | IC50 [2] | IC50 [3] |
| --- | --- | --- | --- |
| O=C(O)c1ccc(-c2ccc(-c3nc4ccccc4[nH]3)o2)cc1 [compound 6b, 4-[5-(1H-benzoimidazol-2-yl)-furan-2-yl] benzoic acid] | 22 µM | 35 µM | – |
| O=C(O)c1ccc(-c2ccc(-c3nc4cc([N+](=O)[O-])ccc4[nH]3)o2)cc1 [compound 6d, 4-[5-(5-nitro-1H-benzoimidazol-2-yl)-furan-2-yl]-benzoic acid] | – | – | 4.56 µM |
